Measured values: patent publication US20110191897A1, “Plants Tolerant to HPPD Inhibitor Herbicides” (Bayer CropScience AG, priority 2009, published 2011)
“And” between values parts separate entries of the source, which are not always exact repeats. Identical values can stand only once.

Tests used:
[1] = tested on: T1 tobacco plants with Arabidopsis HPPD; test: Glasshouse spray trial, herbicidal damage; assay type: in vivo, Nicotiana tabacum; conditions: 100 gAl/ha, 7DAT
Method: (§1) T0 Tobacco plants containing either the gene from Arabidopsis coding for HPPD or the gene FMP37e from Blepharisma japonicum coding for FMP37 HPPD, mentioned above (Example 3), were transferred to the glasshouse (28/20° C.), to develop further and produce seeds. Those seeds were harvested and put on soil (ED73 mixed with sand and osmocote Pro) to germinate in the glasshouse (28/20° C.). Three to four weeks later, plantlets were transferred to single pots containing the soil mentioned above. Two weeks later, plants of a size 4-6 cm diameter were sprayed with either • tembotrione at 100 Al/ha prepared from a WP20 (wettable powder 20%) formulation supplemented with ammonium sulfate and methyl ester raps oil, or • isoxaflutole at 100 Al/ha prepared from a WP20 formulation supplemented with ammonium sulfate and methyl ester raps oil, or • bicyclopyrone at 100 gAl/ha prepared from a WP20 formulation supplemented with ammonium sulfate and methyl ester raps oil, or • “blind formulation” made from a WP20 formulation without active ingredient (Al) supplemented with ammonium sulfate and methyl ester raps oil, and were then transferred to a growth chamber with adequate light conditions (20000Lux).

[2] = tested on: T1 tobacco plants with FMP37e coding for the HPPD FMP37; test: Glasshouse spray trial, herbicidal damage; assay type: in vivo, Nicotiana tabacum; conditions: 100 gAl/ha, 7DAT
Method: as §1

wild-type soybean shoots = test: Soybean shoot greening on isoxaflutole selection; assay type: in vivo; conditions: same amount of isoxaflutole
From the text: (§2) Soybean transformation is achieved using methods well known in the art, such as the one described using the Agrobacterium tumefaciens mediated transformation soybean half-seed explants described by Paz et al. (2006, Plant cell Rep. 25:206). Transformants were identified using Isoxaflutole as selection marker. The appearance of green shoots was observed, and documented as an indicator of tolerance to the herbicide isoxaflutole.

[3] = tested on: transgenic soybean shoots (FMP37); test: Soybean shoot greening on isoxaflutole selection; assay type: in vivo; conditions: isoxaflutole as selection marker
From the text: as §2

CS(=O)(=O)c1cc(C(F)(F)F)ccc1C(=O)c1cnoc1C1CC1 [Isoxaflutole, (5-cyclopropyl-4-isoxazolyl)[2-(methylsulfonyl)-4-(trifluoromethyl)phenyl]methanone]
% injury ([1]; line 252, individual plants): 99% | % injury ([1]; line 327, individual plants): 98% and 99% and 100% (4×) | % injury ([2]; line 113, individual plants): 30% (4×) and 50% | % injury ([2]; line 207, individual plants): 40% | appearance of shoots (wild-type soybean shoots): entirely bleached | share of transgenic tested shoots showing normal greening [3]: 1.5%
